Measurements taken from ChEMBL document CHEMBL2021867, “Systematic Chemical Mutagenesis Identifies a Potent Novel Apratoxin A/E Hybrid with Improved in Vivo Antitumor Activity” (ACS Med Chem Lett, 2011).
Calls of active or inactive are those of the source. The rule behind the calls is not given here.

Assays:
[1] = biological target: Hepatocyte growth factor receptor (Homo sapiens) (UniProt P08581); assay: Inhibition of Met expressed human HCT116 cells by immunoblotting assay; type: cell-based; settings: HCT-116
Sequence of Hepatocyte growth factor receptor (Homo sapiens) (P08581 whole entry): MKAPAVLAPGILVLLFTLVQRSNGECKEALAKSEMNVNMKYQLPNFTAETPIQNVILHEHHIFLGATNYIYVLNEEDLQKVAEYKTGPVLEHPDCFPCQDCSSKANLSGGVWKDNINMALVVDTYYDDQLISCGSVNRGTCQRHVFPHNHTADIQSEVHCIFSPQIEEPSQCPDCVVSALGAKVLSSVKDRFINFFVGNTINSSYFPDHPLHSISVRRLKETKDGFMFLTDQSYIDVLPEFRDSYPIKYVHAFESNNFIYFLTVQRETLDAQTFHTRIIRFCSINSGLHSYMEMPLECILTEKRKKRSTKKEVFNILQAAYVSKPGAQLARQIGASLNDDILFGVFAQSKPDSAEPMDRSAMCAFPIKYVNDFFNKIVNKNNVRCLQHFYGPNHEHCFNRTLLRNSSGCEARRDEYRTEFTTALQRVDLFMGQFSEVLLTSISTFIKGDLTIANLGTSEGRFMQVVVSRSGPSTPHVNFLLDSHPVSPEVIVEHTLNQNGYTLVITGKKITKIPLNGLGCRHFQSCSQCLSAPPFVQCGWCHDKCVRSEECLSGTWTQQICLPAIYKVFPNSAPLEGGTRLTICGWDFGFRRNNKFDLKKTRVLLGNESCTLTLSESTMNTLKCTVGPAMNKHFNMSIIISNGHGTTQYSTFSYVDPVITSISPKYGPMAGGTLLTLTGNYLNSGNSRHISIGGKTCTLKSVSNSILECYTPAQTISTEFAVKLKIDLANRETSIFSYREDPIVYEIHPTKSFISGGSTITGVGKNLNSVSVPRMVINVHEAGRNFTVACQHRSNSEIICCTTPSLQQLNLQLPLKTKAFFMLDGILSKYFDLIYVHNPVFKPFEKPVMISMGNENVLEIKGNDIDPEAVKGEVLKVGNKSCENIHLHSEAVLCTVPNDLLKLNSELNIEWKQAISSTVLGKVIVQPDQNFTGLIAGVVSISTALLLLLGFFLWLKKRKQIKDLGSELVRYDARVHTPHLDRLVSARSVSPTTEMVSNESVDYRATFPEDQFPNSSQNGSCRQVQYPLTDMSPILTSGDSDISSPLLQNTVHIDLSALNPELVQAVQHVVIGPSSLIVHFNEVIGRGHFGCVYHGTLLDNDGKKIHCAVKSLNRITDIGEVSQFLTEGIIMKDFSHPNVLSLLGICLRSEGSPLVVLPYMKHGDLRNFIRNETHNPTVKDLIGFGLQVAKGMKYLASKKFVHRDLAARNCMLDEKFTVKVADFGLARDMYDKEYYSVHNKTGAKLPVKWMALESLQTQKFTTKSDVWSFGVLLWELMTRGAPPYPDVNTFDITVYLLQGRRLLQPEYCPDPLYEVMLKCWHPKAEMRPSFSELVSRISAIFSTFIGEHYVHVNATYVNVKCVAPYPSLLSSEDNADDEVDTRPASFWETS

Oryctolagus cuniculus [2] = species: Oryctolagus cuniculus; assay: Inhibition of cotranslational processing of human PDGFRalpha in rabbit reticulocyte assessed as [35S-methionine] incorporation using canine pancreatic microsomal membranes by SDS-PAGE analysis; type: functional, microsomes; settings: Microsome
HCT-116 = assay: Antitumor activity against human HCT116 cells xenografted in nu/nu mouse model at 0.25 mg/kg, ip dosed daily for over 2 weeks; type: functional, organism-based; parameters: dose 0.25 mg/kg
Mus musculus [3] = assay: Toxicity in human HCT116 cells xenografted nu/nu mouse assessed as body weight loss at > 0.375 mg/kg, ip; type: organism-based, HCT-116; parameters: dose 0.375 mg/kg, route intraperitoneal; settings: in vivo
Mus musculus [4] = assay: Toxicity in human HCT116 cells xenografted nu/nu mouse assessed as mortality at > 0.375 mg/kg, ip; type: organism-based, HCT-116; parameters: dose 0.375 mg/kg, route intraperitoneal; settings: in vivo
Oryctolagus cuniculus [5] = species: Oryctolagus cuniculus; assay: Inhibition of cotranslational processing of in rabbit reticulocyte assessed as [35S-methionine] incorporation using canine pancreatic microsomal membranes by SDS-PAGE analysis; type: functional, microsomes; settings: Microsome
Mus musculus [6] = assay: Irreversible toxicity in human HCT116 cells xenografted nu/nu mouse at > 0.375 mg/kg, ip measured post compound withdrawal; type: organism-based, HCT-116; parameters: dose 0.375 mg/kg, route intraperitoneal; settings: in vivo
Mus musculus [7] = assay: Toxicity in human HCT116 cells xenografted nu/nu mouse assessed as body weight loss at > 0.375 mg/kg, ip measured post compound withdrawal; type: organism-based, HCT-116; parameters: dose 0.375 mg/kg, route intraperitoneal; settings: in vivo
Mus musculus [8] = assay: Toxicity in human HCT116 cells xenografted nu/nu mouse assessed as mortality at > 0.375 mg/kg, ip measured post compound withdrawal; type: organism-based, HCT-116; parameters: dose 0.375 mg/kg, route intraperitoneal; settings: in vivo
Mus musculus [9] = assay: Toxicity in human HCT116 cells xenografted nu/nu mouse assessed as weight loss at 0.25 mg/kg, ip dosed daily for over 2 weeks; type: organism-based, HCT-116; parameters: dose 0.25 mg/kg, route intraperitoneal; settings: in vivo, 336 h
Mus musculus [10] = assay: Toxicity in human HCT116 cells xenografted nu/nu mouse assessed as kidney histology changes at 0.25 mg/kg, ip dosed daily for over 2 weeks; type: organism-based, HCT-116; parameters: dose 0.25 mg/kg, route intraperitoneal; settings: in vivo, 336 h
Mus musculus [11] = assay: Toxicity in human HCT116 cells xenografted nu/nu mouse assessed as liver histology changes at 0.25 mg/kg, ip dosed daily for over 2 weeks; type: organism-based, HCT-116; parameters: dose 0.25 mg/kg, route intraperitoneal; settings: in vivo, 336 h
Mus musculus [12] = assay: Reduction in PDGFRbeta level in tumor of human HCT116 cells xenografted in nu/nu mouse at 0.25 mg/kg, ip dosed daily for over 2 weeks by Western blot; type: functional, organism-based; parameters: dose 0.25 mg/kg; settings: HCT-116
Mus musculus [13] = assay: Reduction in VEGFR2 level in tumor of human HCT116 cells xenografted in nu/nu mouse at 0.25 mg/kg, ip dosed daily for over 2 weeks by Western blot; type: functional, organism-based; parameters: dose 0.25 mg/kg; settings: HCT-116
Mus musculus [14] = assay: Reduction in VEGFR2 level in liver of human HCT116 cells xenografted in nu/nu mouse at 0.25 mg/kg, ip dosed daily for over 2 weeks by Western blot; type: functional, organism-based; parameters: dose 0.25 mg/kg; settings: HCT-116

With `CC[C@H](C)[C@H]1C(=O)N2CCC[C@H]2C(=O)O[C@H](C(C)(C)C)C[C@@H](C)C[C@H](O)[C@H](C)C2=N[C@@H](/C=C(\C)C(=O)N[C@@H](C)C(=O)N(C)[C@@H](C)C(=O)N1C)CS2` as the compound, how does the inhibition [1] read?
Its inhibition is “inactive”.

How did the inhibition [1] turn out when `CC[C@H](C)[C@H]1C(=O)N(C)[C@@H](C)C(=O)O[C@H](C(C)(C)C)C[C@@H](C)C[C@H](O)[C@H](C)C2=N[C@@H](/C=C(\C)C(=O)N[C@@H](Cc3ccc(OC)cc3)C(=O)N(C)[C@@H](C)C(=O)N1C)CS2` was run?
Its inhibition is “Active”.

With `COc1ccc(C[C@@H]2NC(=O)/C(C)=C/[C@H]3CSC(=N3)[C@@H](C)[C@@H](O)C[C@H](C)C[C@@H](C(C)(C)C)OC(=O)[C@@H]3CCCN3C(=O)[C@H](C)N(C)C(=O)[C@H](C)N(C)C2=O)cc1` as the compound, how does the inhibition [1] read?
The inhibition was “inactive”.

Which results are given for `CC[C@H](C)[C@H]1C(=O)N2CCC[C@H]2C(=O)O[C@H](C(C)(C)C)C[C@@H](C)C[C@H](O)[C@H](C)C2=N[C@@H](CCC(=O)N[C@@H](Cc3ccc(OC)cc3)C(=O)N(C)[C@@H](C)C(=O)N1C)CS2` [APRATOXIN S4]?
inhibition (Oryctolagus cuniculus [2]): Active; Activity (HCT-116): Active; Activity (Mus musculus [3]): Non-toxic; Activity (Mus musculus [4]): Non-toxic; inhibition (Oryctolagus cuniculus [5]): Dose-dependent effect; Activity (Mus musculus [6]): Non-toxic; Activity (Mus musculus [7]): Non-toxic; Activity (Mus musculus [8]): Non-toxic; Activity (Mus musculus [9]): Non-toxic; Activity (Mus musculus [10]): Non-toxic; Activity (Mus musculus [11]): Non-toxic; Activity (Mus musculus [12]): Active; Activity (Mus musculus [13]): Active; Activity (Mus musculus [14]): inactive
